Laboratory results reported in patent US20040121994A1, “Novel amides that activate soluble guanylate cyclase” (priority 2002, published 2004).

Target: T1, soluble guanylate cyclase (sGC), α1 and β1 subunits of guanylate cyclase expressed in Sf9 cells (Homo sapiens, UniProt Q02108+Q02153)
T1 construct: made in house; host or cells: Sf9 insect cells (baculovirus co-infection)
T1 sequence (Q02108 1-690): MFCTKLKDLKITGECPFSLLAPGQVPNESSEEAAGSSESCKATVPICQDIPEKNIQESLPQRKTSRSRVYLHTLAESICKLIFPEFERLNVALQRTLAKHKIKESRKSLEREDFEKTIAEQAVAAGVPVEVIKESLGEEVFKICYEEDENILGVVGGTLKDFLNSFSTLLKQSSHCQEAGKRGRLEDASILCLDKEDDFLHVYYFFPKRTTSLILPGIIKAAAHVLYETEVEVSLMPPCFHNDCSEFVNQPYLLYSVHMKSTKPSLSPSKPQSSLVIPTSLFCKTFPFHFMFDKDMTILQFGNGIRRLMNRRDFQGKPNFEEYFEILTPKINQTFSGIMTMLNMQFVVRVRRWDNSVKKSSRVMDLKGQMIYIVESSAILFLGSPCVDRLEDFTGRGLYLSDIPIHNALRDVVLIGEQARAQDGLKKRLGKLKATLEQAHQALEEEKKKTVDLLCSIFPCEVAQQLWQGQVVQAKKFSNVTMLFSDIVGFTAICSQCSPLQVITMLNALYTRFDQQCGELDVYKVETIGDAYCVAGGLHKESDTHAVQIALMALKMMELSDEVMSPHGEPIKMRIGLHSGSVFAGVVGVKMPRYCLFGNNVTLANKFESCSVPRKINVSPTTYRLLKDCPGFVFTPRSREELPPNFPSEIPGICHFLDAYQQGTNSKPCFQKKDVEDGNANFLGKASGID
T1 sequence (Q02153 1-619): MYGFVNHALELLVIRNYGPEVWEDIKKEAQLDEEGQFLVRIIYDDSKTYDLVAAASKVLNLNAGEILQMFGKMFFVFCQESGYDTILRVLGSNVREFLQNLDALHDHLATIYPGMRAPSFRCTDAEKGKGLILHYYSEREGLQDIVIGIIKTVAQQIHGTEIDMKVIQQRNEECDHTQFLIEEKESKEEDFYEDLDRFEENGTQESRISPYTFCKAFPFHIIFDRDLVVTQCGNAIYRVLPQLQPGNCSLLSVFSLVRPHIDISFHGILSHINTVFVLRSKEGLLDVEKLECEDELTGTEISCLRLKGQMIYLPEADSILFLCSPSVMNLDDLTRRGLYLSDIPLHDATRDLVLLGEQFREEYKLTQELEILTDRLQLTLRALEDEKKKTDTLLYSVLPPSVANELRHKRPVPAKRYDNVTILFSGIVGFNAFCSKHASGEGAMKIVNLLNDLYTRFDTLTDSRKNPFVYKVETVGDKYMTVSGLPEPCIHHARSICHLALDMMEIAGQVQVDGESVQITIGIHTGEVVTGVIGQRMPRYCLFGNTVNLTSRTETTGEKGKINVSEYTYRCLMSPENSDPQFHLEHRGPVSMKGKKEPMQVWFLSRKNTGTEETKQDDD
Test: Guanylate cyclase assay (formation of cyclic GMP from GTP)
Format: biochemical
Details: for Mean activation at 100 μM: (activity of compound at 100 μM with 1 μM SNP)−(activity of compound at 100 μM)/(activity of SNP at 1 μM)−(basal activity of sGC); for Mean efficacy of compound combined with 1 μM of SNP, [%]: compound at 100 μM with 1 μM sodium nitro prusside (SNP); for Mean efficacy of compound combined with 1 μM of SNP, [%] / Emax at 100 µM: normalized with the activity of 100 μM YC-1 (without SNP) as 100%; for Emax at 100 µM: compound at 100 μM without SNP, read-out: Mean basal efficacy of compound alone at 100 μM, [%]
Description: Sf9 cells were cultured in Sf-90011 medium supplemented with 10% (v/v) fetal calf serum at 28° C. to give a count of 6×10^5 cells/ml. The cells were then infected with a mixture of the virus stocks for the α1 and β1 subunits of guanylate cyclase at a multiplicity of infection of 0.1 pfu/cell. The cells were harvested 72 hours after infection and were pelleted by centrifugation. The resulting cell pellets were homogenized with Polytron homogenizer in 3 volumes of 20 mM Tris-HCl (pH 7.6) containing 1 mM EDTA, 5 mM dithiothreitol, 90 mM NaCl, 10% glycerol, and protease inhibitors mix (Roche Molecular Biochemicals). The homogenate was centrifuged at 50,000×g for 60 minutes and the supernatant was aliquotted and stored at −80° C.
Compounds of the present invention were dissolved in DMSO to make 100 mM and saved as stocks at −20° C. When compounds were tested, prepared 10-fold concentrated solutions with 10% DMSO. Then added 10 μl of 10-fold concentrated compound solutions to the reaction mixture of total 100 μl.
Guanylate cyclase activity was measured by the formation of cyclic GMP from GTP in a total volume of 100 μl. Guanylate cyclase-expressed Sf9 cell high-speed supernatant was used as an enzyme source for the assay. The reaction mixture containing 0.1 μl enzyme (Sf9 high-speed sup), compound solution, 50 mM Tris-HCl (pH 7.6), 4 mM MgCl2, 0.5 mM IBMX, 15 mM creatine phosphate, 20 μg creatine phosphokinase, 0.1% BSA and 1 mM GTP was incubated at 37° C. for 15 minutes. After the reaction, 0.9 ml of 50 mM sodium acetate buffer (pH 5.8) was added followed by boiling for 3 minutes to stop the reaction. The solution was centrifuged at 3000 rpm for 15 minutes at room temperature and cyclic GMP in 20 μl of the resulting supernatant was measured according to the protocol of Amersham cyclic GMP enzymeimmunoassay system (purchased from Sigma, catalogue number RPN 226).
Compounds of the present invention were tested at 100 μM with and without 1 μM sodium nitro prusside (SNP). 1-Benzyl-3-hydroxymethyl-2-furylindazole (YC-1) was included as a standard for each assay. The data was normalized with the activity of 100 μM YC-1 (without SNP) as 100%. Mean basal efficacy, in Table 1, was expressed as a percentage of 100 μM YC-1 (without SNP).
The mean activation, in Table 1, was calculated based on the formula: (activity of compound of the present invention at 100 μM with 1 μM SNP)−(activity of compound of the present invention at 100 μM)/(activity of SNP at 1 μM)−(basal activity of sGC).

Compound | Mean activation at 100 μM | Mean efficacy of compound combined with 1 μM of SNP, [%] | Emax at 100 µM
CC(C)CCSc1ccccc1/C=C/C(=O)N1CCC(O)CC1 [Example 60, 1-((2E)-3-{2-[(3-methylbutyl)thio]phenyl}-2-propenoyl)-4-piperidinol] | 8.3 | 165% | 115%
CCC(O)CNC(=O)/C=C/c1ccccc1Sc1ccc(Cl)cc1 (stereo not drawn) [Example 39, (2E)-3-{2-[(4-chlorophenyl)thio]phenyl}-N-(2-hydroxybutyl)acrylamide] | 19.3 | 305% | 73%
CC(CC(=O)NCCc1ccncc1)c1ccccc1Sc1ccc(Cl)cc1 (stereo not drawn) [Example 11, 3-{2-[(4-chlorophenyl)thio]phenyl}-N-[2-(4-pyridinyl)ethyl]butanamide] | 2.8 | 6% | 1%
CCCCNC(=O)/C=C/c1ccccc1Sc1ccc(Cl)cc1 [Example 33, (2E)-N-butyl-3-{2-[(4-chlorophenyl)thio]phenyl}acrylamide] | 6.9 | 38% | 7%
Cc1ccc(Sc2ncccc2/C=C/C(=O)NC2CCC(O)CC2)cc1 (stereo not drawn) [Example 15, (2E)-N-(4-hydroxycyclohexyl)-3-{2-[(4-methylphenyl)thio]-3-pyridinyl}acrylamide] | 4.7 | 204% | 126%
CC(C)CCSc1ccccc1/C=C/C(=O)N1CCCC(O)C1 (stereo not drawn) [Example 61, 1-((2E)-3-{2-[(3-methylbutyl)thio]phenyl}-2-propenoyl)-3-piperidinol] | 10.2 | 165% | 103%
CCCCCSc1ccccc1/C=C/C(=O)NC1CCC(O)CC1 (stereo not drawn) [Example 27, (2E)-N-(4-hydroxycyclohexyl)-3-[2-(pentylthio)phenyl]acrylamide] | 8.3 | 278% | 115%
O=C(/C=C/c1ccccc1SC1CCCCC1)NC1CCC(O)CC1 (stereo not drawn) [Example 26, (2E)-3-[2-(cyclohexylthio)phenyl]-N-(4-hydroxycyclohexyl)acrylamide] | 7.9 | 506% | 353%
Cc1ccc(/C=C/C(=O)NC2CCC(O)CC2)c(Sc2ccc(Cl)cc2)n1 (stereo not drawn) [Example 28, (2E)-3-{2-[(4-chlorophenyl)thio]-6-methyl-3-pyridinyl}-N-(4-hydroxycyclohexyl)acrylamide] | 2.6 | 18% | 6%
Cc1ccc(Sc2ccccc2/C=C/C(=O)NC(C)CCCC(C)(C)O)c(C)c1 (stereo not drawn) [Example 53, (2E)-3-{2-[(2,4-dimethylphenyl)thio]phenyl}-N-(5-hydroxy-1,5-dimethylhexyl)acrylamide] | 1.7 | 10% | 4%
O=C(/C=C/c1ccccc1Sc1ccc(Cl)cc1)NCCCCCO [Example 35, (2E)-3-{2-[(4-chlorophenyl)thio]phenyl}-N-(5-hydroxypentyl)acrylamide] | 6.3 | 228% | 49%
CC(O)CCNC(=O)/C=C/c1ccccc1Sc1ccc(Cl)cc1 (stereo not drawn) [Example 38, (2E)-3-{2-[(4-chlorophenyl)thio]phenyl}-N-(3-hydroxybutyl)acrylamide] | 19.0 | 259% | 60%
Cc1ccc(Sc2ccccc2CCC(=O)NCCCCO)cc1 [Example 5, N-(4-hydroxybutyl)-3-{2-[(4-methylphenyl)thio]phenyl}propanamide] | 5.1 | 96% | 14%
CC(C)CSc1ccccc1/C=C/C(=O)NC1CCCCC1O (stereo not drawn) [Example 21, (2E)-N-(2-hydroxycyclohexyl)-3-[2-(isobutylthio)phenyl]acrylamide] | 4.1 | 106% | 45%
O=C(/C=C/c1cccnc1Sc1ccc(Cl)cc1)NC1CCC(O)CC1 (stereo not drawn) [Example 16, (2E)-3-{2-[(4-chlorophenyl)thio]-3-pyridinyl}-N-(4-hydroxycyclohexyl)acrylamide] | 3.6 | 68% | 11%
CC(CCCC(C)(C)O)NC(=O)/C=C/c1ccccc1Sc1ccc(Cl)cc1 (stereo not drawn) [Example 31, (2E)-3-{2-[(4-chlorophenyl)thio]phenyl}-N-(5-hydroxy-1,5-dimethylhexyl)acrylamide] | 3.7 | 187% | 93%
CONCCCCNC(=O)CCc1ccccc1Sc1ccc(Cl)cc1 [Example 12, 3-{2-[(4-chlorophenyl)thio]phenyl}-N-[4-(methoxyamino)butyl]propanamide] | 1.5 | 20% | 2%
CS(=O)(=O)NCCCCNC(=O)CCc1ccccc1Sc1ccc(Cl)cc1 [Example 6, 3-{2-[(4-chlorophenyl)thio]phenyl}-N-{4-[(methylsulfonyl)amino]butyl}propanamide] | 2.7 | 11% | 2%
O=C(/C=C/c1ccccc1SC1CCCC1)NC1CCC(O)CC1 (stereo not drawn) [Example 25, (2E)-3-[2-(cyclopentylthio)phenyl]-N-(4-hydroxycyclohexyl)acrylamide] | 9.5 | 430% | 242%
Cc1ccc(Sc2ccccc2/C=C/C(=O)NC2CCCCC2O)cc1 (stereo not drawn) [Example 47, (2E)-N-(2-hydroxycyclohexyl)-3-{2-[(4-methylphenyl)thio]phenyl}acrylamide] | 2.8 | 44% | 16%
